This is an account of results in patent US20100035822A1, “PROLINE-RICH PEPTIDES, PHARMACEUTICAL COMPOSITION, USE OF ONE OR MORE PEPTIDES AND METHOD OF TREATMENT” (priority 2006, published 2010).

For one series, the system named is normotensive Wistar rats. The series is classed as in vivo, rat. To be noted: 10 μmoles/Kg of body weight i.v.; 6 hours. As for the experimental part: In vivo studies on the effect of peptides of the present invention were performed on adult male spontaneously hypertensive rats, and normotensive Wistar rats (Rattus novergicus) weighing 250 to 350 g. Animals had free access to chow (Nuvilab) and water, and were submitted to a light-dark cycle of 12 hours each. Procedures involving animals and their care were conducted according to Giles [Giles A. R. Guidelines for the use of animals in biomedical research. Thromb. Haemost. 58: 1078-1084, 1987].
Before drug administration, cardiovascular parameters of the rats were monitored for 40 minutes. Intravenous (I.V.) injection of Ang I (100 ng) was performed in bolus in a total volume of 0.1 mL. 60 minutes after the start of register, 71 nmoles/Kg body weight of peptides SEQ ID NO 8 or SEQ ID NO 4, or captopril were administered I.V. in a total volume of 0.5 mL of 0.9% NaCl solution. […] Arterial blood pressure and heart frequency were continuously monitored for 360 minutes.
Adult male Wistar normotensive rats, weighing between 250 and 350 g, were used in the experimental evaluation of the hypotensive effect of SEQ ID NO 8, as described in Example 12. An i.v. dose of 10 μmoles/Kg of body weight of peptide SEQ ID NO 8 was injected, and arterial blood pressure was monitored for 6 hours (results not shown).

Series [1] concerns the target T1, argininosuccinate synthase (AsS) (Mus musculus, UniProt P16460).
T1 construct: Cytosolic and membrane fractions of the renal extract (100 mg/ml total protein) were applied to separate columns; from tissue; host or cells: Balb-c mouse kidney, cytosolic and membrane fractions
T1 sequence (P16460 1-412): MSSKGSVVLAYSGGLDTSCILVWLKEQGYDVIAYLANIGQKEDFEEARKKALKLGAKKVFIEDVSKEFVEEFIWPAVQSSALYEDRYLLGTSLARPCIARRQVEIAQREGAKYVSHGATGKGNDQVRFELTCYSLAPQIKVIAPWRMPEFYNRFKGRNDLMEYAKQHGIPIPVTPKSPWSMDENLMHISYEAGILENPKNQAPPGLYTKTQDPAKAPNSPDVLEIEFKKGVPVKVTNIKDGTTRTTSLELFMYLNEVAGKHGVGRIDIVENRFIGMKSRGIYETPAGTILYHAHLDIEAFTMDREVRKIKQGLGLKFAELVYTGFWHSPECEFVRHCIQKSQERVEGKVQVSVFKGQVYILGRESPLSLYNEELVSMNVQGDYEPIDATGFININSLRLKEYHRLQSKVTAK
As to the kind of experiment: Affinity chromatography of mouse kidney extract on peptide column; identification of the bound protein. Type of series: binding. To be noted: affinity column with SEQ ID NO 7 as ligand; crude mouse kidney extract. The procedure:
Starting material were the cytosolic and plasma membrane crude extracts of mouse kidney cells homogenized in the buffer 10 mM Tris-HCl pH 7.5, 25 mM saccharose, 1 mM EDTA, and 1 mM PMSF (cytosolic fraction), or 1% Triton X-100 (plasma membrane fraction). Supernatants were dialyzed in 0.2 M NaHCO3, 0.5 M NaCl, pH 8.3, and separately applied to the affinity chromatography column Hitrap NHS-activated (GE Healthcare) coupled to 5 mg of peptide SEQ ID NO 7.
Preparing affinity columns. Columns were washed three times with 2 ml 1 mM HCl before homogeneous preparations of SEQ ID NO 7 (5 mg in 1 ml 0.2 M NaHCO3, 0.5 M NaCl, pH 8.3) were applied. After 30 min incubation at room temperature, peptides had been coupled, and the column was inactivated with buffer A (0.5 M ethanolamine, 0.5 M NaCl, pH 8.3), and washed with 0.2 M NaHCO3, 0.5 M NaCl, pH 8.3, and stored at 4° C. in 50 mM Na2HPO4, 0.1%, NaN3, pH 7.0. The columns were called HiTrap-SEQ. ID NO 7. […]
Affinity chromatography and analysis of the retained proteins by SDS-PAGE. […] Protein concentration (mg/ml) was determined by the method of Bradford (Bradford, M. M. A rapid and sensitive method for the quantitation of microgram quantities of protein utilizing the principle of protein-dye binding. Anal. Biochem. 72: 248-254, 1976) with the Protein Assay reagent from BioRad. […]

Take <ENWPHPQIPP [SEQ ID NO 8]: the “hypotensive effect in normotensive rats” value in the series with normotensive Wistar rats is reported as “no significant hypotensive effect”. For the same substance, in series [1], the “binding to the approx. 46 kDa protein (AsS) of mouse kidney extract” value was “capable of selectively binding”.
